Data reported in publication PMC4005788 (Nature medicine, 2013).

How the values were obtained:
NG108-cl cells = assay: Clomeleon assay of [Cl−]i in NG108-cl cells; type: cell-based
KCC2 [1] = biological target: T1, KCC2 (Rattus norvegicus, UniProt Q63633); assay: Cell surface biotinylation and immunoblot of KCC2 in BDNF-treated spinal slices; type: cell-based; settings: 100 μM, BDNF-pretreated slices
T1 sequence (Q63633 1-1116 isoform Q63633-2): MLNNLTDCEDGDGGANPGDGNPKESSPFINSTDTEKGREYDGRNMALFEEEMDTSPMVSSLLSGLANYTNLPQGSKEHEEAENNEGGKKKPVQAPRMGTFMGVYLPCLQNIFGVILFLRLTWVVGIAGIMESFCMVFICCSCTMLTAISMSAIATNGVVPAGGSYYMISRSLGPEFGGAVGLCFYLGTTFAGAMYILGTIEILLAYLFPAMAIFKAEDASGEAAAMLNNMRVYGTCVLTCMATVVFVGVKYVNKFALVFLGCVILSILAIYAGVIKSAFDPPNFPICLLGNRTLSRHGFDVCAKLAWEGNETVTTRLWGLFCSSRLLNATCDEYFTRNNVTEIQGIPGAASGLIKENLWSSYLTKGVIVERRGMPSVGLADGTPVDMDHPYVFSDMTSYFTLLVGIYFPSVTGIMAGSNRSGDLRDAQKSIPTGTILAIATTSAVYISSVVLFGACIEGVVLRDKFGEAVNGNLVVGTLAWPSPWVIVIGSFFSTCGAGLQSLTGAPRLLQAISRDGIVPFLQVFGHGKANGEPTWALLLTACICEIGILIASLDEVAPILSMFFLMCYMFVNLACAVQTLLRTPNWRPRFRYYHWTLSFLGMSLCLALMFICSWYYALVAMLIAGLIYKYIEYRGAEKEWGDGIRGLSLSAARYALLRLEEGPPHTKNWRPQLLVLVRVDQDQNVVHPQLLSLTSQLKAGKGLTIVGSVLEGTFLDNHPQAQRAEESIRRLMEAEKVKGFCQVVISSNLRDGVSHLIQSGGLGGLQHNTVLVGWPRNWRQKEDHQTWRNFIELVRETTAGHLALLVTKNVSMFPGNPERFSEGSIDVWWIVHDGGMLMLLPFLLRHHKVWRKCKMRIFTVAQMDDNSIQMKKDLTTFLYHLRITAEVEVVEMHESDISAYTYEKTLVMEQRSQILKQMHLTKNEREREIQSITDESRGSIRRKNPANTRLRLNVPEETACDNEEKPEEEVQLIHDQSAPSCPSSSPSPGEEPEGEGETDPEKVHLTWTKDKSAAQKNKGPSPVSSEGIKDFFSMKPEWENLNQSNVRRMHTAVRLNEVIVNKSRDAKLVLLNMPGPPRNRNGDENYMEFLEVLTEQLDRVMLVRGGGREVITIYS

[2] = tested on: 55 radioligand-receptor interactions; assay: Radioligand competition binding screen, whole panel; settings: 10 μM CLP257, 55 interactions
KCC2 [3] = biological target: T1, KCC2; assay: Imaging of K+-driven Cl− transport; type: cell-based; settings: for increase of the rate of Cl− accumulation: 25 μM, 15 mM KCl
KCC2 [4] = biological target: T2, KCC2 (Homo sapiens, UniProt Q9H2X9); assay: Rb+ flux assay in X. laevis oocytes expressing KCC2; type: cell-based; settings: 200 nM pre-incubation, 45 min Rb+ influx, vs vehicle
T2 sequence (Q9H2X9 1-1139): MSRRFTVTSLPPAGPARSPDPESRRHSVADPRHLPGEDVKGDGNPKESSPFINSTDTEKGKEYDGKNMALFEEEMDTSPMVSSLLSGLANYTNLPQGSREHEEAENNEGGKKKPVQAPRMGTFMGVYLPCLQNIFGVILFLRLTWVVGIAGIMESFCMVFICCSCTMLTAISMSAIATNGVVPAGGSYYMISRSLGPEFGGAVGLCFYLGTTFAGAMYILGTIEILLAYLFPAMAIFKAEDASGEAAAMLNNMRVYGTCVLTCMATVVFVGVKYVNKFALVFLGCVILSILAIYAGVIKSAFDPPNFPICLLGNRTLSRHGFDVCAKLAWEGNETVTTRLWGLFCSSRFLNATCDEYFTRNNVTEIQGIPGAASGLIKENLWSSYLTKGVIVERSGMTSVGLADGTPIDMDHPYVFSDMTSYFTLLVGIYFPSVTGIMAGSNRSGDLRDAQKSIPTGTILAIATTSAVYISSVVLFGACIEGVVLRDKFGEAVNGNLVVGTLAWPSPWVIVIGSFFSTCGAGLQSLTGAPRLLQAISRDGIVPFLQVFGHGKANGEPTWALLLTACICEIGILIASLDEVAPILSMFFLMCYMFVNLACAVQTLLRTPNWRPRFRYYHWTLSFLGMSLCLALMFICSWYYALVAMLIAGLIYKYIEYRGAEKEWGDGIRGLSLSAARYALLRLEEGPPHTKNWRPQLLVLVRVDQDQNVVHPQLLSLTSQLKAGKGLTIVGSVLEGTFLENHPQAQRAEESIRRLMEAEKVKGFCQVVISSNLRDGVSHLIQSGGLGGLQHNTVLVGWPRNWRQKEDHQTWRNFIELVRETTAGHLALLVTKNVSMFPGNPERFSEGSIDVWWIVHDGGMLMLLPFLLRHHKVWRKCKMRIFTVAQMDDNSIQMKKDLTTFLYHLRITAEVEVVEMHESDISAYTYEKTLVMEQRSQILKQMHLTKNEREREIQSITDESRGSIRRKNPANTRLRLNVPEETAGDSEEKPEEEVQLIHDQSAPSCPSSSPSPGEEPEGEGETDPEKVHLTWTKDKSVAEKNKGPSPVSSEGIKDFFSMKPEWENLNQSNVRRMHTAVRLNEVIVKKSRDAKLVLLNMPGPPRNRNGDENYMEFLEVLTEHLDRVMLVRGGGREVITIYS

[5] = Pharmacokinetic analysis in rats; type: in vivo; settings: rat
HEK293-cl cells = assay: Clomeleon assay of [Cl−]i in HEK293-cl cells; type: cell-based, Human; settings: HEK293-cl cells (no KCC2; express NKCC1, KCC1, KCC3, KCC4)
hERG channel = hERG channel (Homo sapiens, UniProt Q12809); assay: hERG inhibition of tail current, automated patch-clamp; type: cell-based
hERG channel, sequence (Q12809 whole entry): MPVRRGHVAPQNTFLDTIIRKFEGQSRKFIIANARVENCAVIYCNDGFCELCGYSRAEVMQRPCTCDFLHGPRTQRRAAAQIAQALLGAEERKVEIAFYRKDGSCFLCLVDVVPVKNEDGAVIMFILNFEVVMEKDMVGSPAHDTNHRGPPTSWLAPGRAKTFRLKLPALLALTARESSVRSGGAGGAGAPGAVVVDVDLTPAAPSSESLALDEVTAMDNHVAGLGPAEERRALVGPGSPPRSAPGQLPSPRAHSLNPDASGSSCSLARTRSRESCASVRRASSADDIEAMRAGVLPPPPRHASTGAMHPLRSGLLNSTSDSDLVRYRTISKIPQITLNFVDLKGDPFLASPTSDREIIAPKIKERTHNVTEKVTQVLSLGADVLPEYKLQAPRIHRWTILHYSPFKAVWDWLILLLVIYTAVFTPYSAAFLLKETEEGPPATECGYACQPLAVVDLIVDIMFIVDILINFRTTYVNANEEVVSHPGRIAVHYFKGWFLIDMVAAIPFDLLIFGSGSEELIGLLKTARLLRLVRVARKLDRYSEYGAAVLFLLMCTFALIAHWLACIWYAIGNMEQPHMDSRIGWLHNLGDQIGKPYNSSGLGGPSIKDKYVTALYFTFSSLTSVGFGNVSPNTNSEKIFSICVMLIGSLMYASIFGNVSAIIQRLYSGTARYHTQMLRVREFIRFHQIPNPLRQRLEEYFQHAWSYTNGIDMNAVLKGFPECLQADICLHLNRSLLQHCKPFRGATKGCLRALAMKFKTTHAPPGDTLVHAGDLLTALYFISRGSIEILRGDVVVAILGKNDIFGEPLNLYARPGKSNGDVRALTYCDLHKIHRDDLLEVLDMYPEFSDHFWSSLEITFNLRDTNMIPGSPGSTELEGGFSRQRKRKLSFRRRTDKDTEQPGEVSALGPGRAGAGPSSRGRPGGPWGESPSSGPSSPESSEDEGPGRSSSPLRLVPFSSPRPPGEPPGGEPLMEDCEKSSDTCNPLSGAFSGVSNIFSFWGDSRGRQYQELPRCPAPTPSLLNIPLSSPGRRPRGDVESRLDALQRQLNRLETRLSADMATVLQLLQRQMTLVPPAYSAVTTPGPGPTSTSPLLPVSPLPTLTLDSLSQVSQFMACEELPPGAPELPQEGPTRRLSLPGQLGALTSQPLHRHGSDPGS

Metabolite analyses = type: in vivo; settings: not shown
PNI rats = assay: Paw withdrawal threshold; type: in vivo, rat
other CCCs = assay: Rb+ flux assay in X. laevis oocytes expressing other CCCs; type: cell-based; settings: 200 nM pre-incubation
[6] = tested on: superficial dorsal horn (SDH) neurons; assay: Whole-cell recording of EGABA under Cl− load in superficial dorsal horn neurons; type: cell-based, rat; settings: 25 μM, BDNF-treated and PNI slices
rat hepatoma H4IIE cells = assay: Caspase-3 activation in H4IIE cells; type: cell-based; settings: 24-h exposure, up to 300 μM
GABAA receptor = assay: Evoked GABAA currents in SDH neurons with VU0240551; type: cell-based, rat; settings: acute application, 25 and 100 μM, in the presence of VU0240551
[7] = tested on: superficial dorsal horn field responses; type: in vivo, rat; settings: local spinal 100 μM
[8] = biological target: recombinant α1β2γ2 GABAA receptors (Homo sapiens, UniProt P14867+P18507+P47870); assay: GABAA receptor automated whole cell patch-clamp in CHO cells; type: cell-based; settings: 50 μM CLP257, CHO cells
recombinant α1β2γ2 GABAA receptors, sequence (P14867 28-456): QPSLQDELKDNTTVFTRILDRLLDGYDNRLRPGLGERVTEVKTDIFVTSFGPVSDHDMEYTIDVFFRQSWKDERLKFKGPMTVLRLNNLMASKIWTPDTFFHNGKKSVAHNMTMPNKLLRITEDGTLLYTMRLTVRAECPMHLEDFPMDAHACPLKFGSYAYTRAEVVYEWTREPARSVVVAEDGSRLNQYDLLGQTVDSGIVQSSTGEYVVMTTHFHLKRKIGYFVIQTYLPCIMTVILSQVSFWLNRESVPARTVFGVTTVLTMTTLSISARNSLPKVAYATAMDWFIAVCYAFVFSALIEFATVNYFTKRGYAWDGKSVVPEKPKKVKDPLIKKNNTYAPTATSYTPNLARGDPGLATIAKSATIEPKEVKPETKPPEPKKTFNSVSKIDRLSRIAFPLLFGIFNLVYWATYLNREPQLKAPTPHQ
recombinant α1β2γ2 GABAA receptors, sequence (P47870 25-512 limits assumed): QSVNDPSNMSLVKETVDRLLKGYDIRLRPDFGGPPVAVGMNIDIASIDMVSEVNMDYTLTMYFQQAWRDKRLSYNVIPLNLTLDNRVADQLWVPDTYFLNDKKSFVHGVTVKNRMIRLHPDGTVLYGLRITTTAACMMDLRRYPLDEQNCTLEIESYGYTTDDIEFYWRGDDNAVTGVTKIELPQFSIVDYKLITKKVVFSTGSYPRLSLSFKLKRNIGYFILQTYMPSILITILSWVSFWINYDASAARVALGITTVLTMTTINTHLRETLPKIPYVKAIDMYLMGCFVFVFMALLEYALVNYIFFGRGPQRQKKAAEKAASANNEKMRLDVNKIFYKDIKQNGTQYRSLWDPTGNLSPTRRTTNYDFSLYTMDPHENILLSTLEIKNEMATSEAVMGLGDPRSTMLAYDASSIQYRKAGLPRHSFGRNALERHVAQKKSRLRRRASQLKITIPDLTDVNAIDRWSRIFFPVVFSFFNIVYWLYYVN
recombinant α1β2γ2 GABAA receptors, sequence (P18507 40-475): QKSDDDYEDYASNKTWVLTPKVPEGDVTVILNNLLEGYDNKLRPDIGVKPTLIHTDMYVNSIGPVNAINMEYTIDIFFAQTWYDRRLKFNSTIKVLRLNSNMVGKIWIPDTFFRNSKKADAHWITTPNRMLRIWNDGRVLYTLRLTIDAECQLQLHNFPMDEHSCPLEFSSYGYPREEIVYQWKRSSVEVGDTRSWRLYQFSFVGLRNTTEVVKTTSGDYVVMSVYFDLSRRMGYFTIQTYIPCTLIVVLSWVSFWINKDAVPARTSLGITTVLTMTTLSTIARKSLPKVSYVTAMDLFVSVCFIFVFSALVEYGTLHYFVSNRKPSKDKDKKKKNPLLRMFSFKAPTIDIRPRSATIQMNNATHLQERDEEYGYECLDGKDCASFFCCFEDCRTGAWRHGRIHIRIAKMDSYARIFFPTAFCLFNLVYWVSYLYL

rats = assay: Accelerating rotorod assay; type: in vivo, rat; settings: equipotent oral doses, 2 h post-dose
[9] = [Cl−]i reduction, clomeleon assay, 5 h exposure
[10] = 5 h, [Cl−]i reduction, clomeleon assay, 5 h exposure

In the case of O=C1N=C(N2CCCCC2)S/C1=C\c1ccccc1O [CL-058, (5Z)-5-[(2-hydroxyphenyl)methylidene]-2-(piperidin-1-yl)-4,5-dihydro-1,3-thiazol-4-one], the EC50 (NG108-cl cells; [9]) is reported as 31.5 µM.
For O=C1N=C(N2CCCCN2)S/C1=C\c1ccc(F)cc1O [CLP257, (5Z)-2-(1,2-diazinan-1-yl)-5-[(4-fluoro-2-hydroxyphenyl)methylidene]-4,5-dihydro-1,3-thiazol-4-one], the “cell surface expression of KCC2 monomers and dimers” value (KCC2 [1]) was “increased”, the “total KCC2 expression” value (KCC2 [1]) was “not significantly affected” and the “inhibition of radioligand-receptor interactions, maximum over the panel” value [2] was no more than 30%. For the same molecule, the “increase of the rate of Cl− accumulation” value (KCC2 [3]; BDNF-treated spinal slices) was 26%, the “increase of the rate of Cl− accumulation” value (KCC2 [3]; PNI spinal slices) was 45% and the “Cl− transport” value (KCC2 [3]; 100 μM, BDNF-treated slices) was “completely restored Cl^− transport to control levels”. The “increase of KCC2 transport activity (Rb+ influx)” value (KCC2 [4]) was 61%, the half-life ([5]; male, Sprague-Dawley, plasma) was less than 15 min and the “change in [Cl−]i” value (HEK293-cl cells) was “no change”. The IC50 (hERG channel) was 449 µM, the “metabolism of the hydroxyl moiety” value (Metabolite analyses) was “rapidly undergoes glucuronidation” and the “maximal analgesic effect compared with Gabapentin” value (PNI rats; IP) was “much weaker than that of Gabapentin”. The mechanical withdrawal thresholds (PNI rats; IP, peaking at 100 mg kg^−1, 2 h post-injection) was “increased withdrawal thresholds”, the EC50 (NG108-cl cells; [10]) was 0.616 µM and the “Maximal [Cl−]i reduction” value (NG108-cl cells; NG108-cl cells) was ~ 40%. For the same molecule, the “drop from resting [Cl−]i of 57 mM” value (NG108-cl cells; at maximal effect) was 23 mM, the “change of transport activity (Rb+ influx) in other CCCs” value (other CCCs) was “no change” and the “EGABA (reversal potential for GABAA currents)” value [6] was “hyperpolarized”. For the same molecule, the Caspase-3 activation (rat hepatoma H4IIE cells) was “not detected”, the “effect on evoked GABAA currents” value (GABAA receptor) was “no effect” and the evoked field responses ([7]; animals with nerve injury (PNI)) was “renormalized”. The “effect on the stimulus-response relationship of evoked field responses” value ([7]; naïve animals, 2.5 to 135 g (mm^2)^−1) was “no effect” and the “agonist effect relative to the effect of 5 μM muscimol” value [8] was less than 0.2%.
In the case of O=C1N=C(N2CCCCN2)S/C1=C\c1ccc(F)cc1OC(=O)N1CCCC1 [CLP290, 2-{[(5Z)-2-(1,2-diazinan-1-yl)-4-oxo-4,5-dihydro-1,3-thiazol-5-ylidene]methyl}-5-fluorophenyl pyrrolidine-1-carboxylate], the “maximal plasma concentration and exposure of CLP257 vs native CLP257” value ([5]; analyte CLP257 after CLP290) is reported as “improved maximal plasma concentration and exposure”, the “motor function on accelerating rotorod” value (rats) is reported as “no effect” and the IC50 (hERG channel) is reported as 224 µM. For the same molecule, the “maximal oral analgesic efficacy” value (PNI rats; PO, 100 mg kg^−1 vs Pregabalin 30 mg kg^−1) was “equivalent to that of Pregabalin”.
Oc1cc(F)ccc1/C=C1\SC(N2CCCCN2)=NC1=S [CLP355, (5Z)-2-(1,2-diazinan-1-yl)-5-[(4-fluoro-2-hydroxyphenyl)methylidene]-4,5-dihydro-1,3-thiazole-4-thione] showed an EC50 (NG108-cl cells; [10]) of 0.05 µM.
In the case of O=C1N=C(N2CCCCN2)S/C1=C\c1ccc(F)cc1OC1OC(C(=O)O)C(O)C(O)C1O (centres unmarked) [CLP386, 6-(2-{[(5Z)-2-(1,2-diazinan-1-yl)-4-oxo-4,5-dihydro-1,3-thiazol-5-ylidene]methyl}-5-fluorophenoxy)-3,4,5-trihydroxyoxane-2-carboxylic acid], the “EC50 (μM)” value (NG108-cl cells; [9]) is reported as “inactive”.
With CC(C)C[C@H](CN)CC(=O)O [Pregabalin, reference compound] the “motor function on accelerating rotorod” value (rats) was “depressed motor function”.
For Cc1csc(NC(=O)CSc2ccc(-c3ccccc3)nn2)n1 [VU0240551, reference compound], the “antagonism of the [Cl−]i response to CLP257” value (NG108-cl cells; CLP257 500 nM, 5 h exposure) was “dose-dependent antagonism”.
